Assay results: patent publication US11866720B2, “Transgenic or non-transgenic plants with mutated protoporphyrinogen oxidase having increased tolerance to herbicides” (priority 2013, dated 2024)
Values joined by “and” are separate entries in the source; they are usually repeats but may differ in a detail not shown here. Equal entries are not always repeated.

Tests used:
[1] = tested on: transgenic Arabidopsis thaliana plants expressing wildtype or mutated PPO; assay: Greenhouse tolerance test of transgenic T1 Arabidopsis plants (phytotox / injury rating 0-100); type: in vivo; conditions: for Plant growth injury, scale 0-100, 100 is 100% damage: +1% MSO
[2] = tested on: transgenic Arabidopsis thaliana plants expressing wildtype or mutated PPO; assay: Germination / growth inhibition assay of transgenic Arabidopsis T2 seeds in 48-well plates; conditions: growth inhibition seven to ten days after seeding
[3] = non-transgenic Arabidopsis, POST, 7 DAT, 75 g ai/ha
[4] = non-transgenic Arabidopsis, POST, 7 DAT, 150 g ai/ha
[5] = non-transgenic Arabidopsis, POST, 7 DAT, 300 g ai/ha
[6] = Ø F420V 1, POST, 7 DAT, 75 g ai/ha
[7] = Ø F420V 1, POST, 7 DAT, 150 g ai/ha
[8] = Ø F420V 1, POST, 7 DAT, 300 g ai/ha
[9] = Ø F420V 2, POST, 7 DAT, 75 g ai/ha
[10] = Ø F420V 2, POST, 7 DAT, 150 g ai/ha
[11] = Ø F420V 2, POST, 7 DAT, 300 g ai/ha
[12] = Ø F420V 3, POST, 7 DAT, 75 g ai/ha
[13] = Ø F420V 3, POST, 7 DAT, 150 g ai/ha
[14] = Ø F420V 3, POST, 7 DAT, 300 g ai/ha
[15] = Ø R128A, F420V 1, POST, 7 DAT, 75 g ai/ha
[16] = Ø R128A, F420V 1, POST, 7 DAT, 150 g ai/ha
[17] = Ø R128A, F420V 1, POST, 7 DAT, 300 g ai/ha
[18] = Ø R128A, F420V 1 to 3, 75 g ai/ha
[19] = Ø R128A, F420V 1 to 3, 150 g ai/ha
[20] = Ø R128A, F420V 1 to 3, 300 g ai/ha
[21] = Ø R128A, F420V 2, POST, 7 DAT, 75 g ai/ha
[22] = Ø R128A, F420V 2, POST, 7 DAT, 150 g ai/ha
[23] = Ø R128A, F420V 2, POST, 7 DAT, 300 g ai/ha
[24] = Ø R128A, F420V 3, POST, 7 DAT, 75 g ai/ha
[25] = Ø R128A, F420V 3, POST, 7 DAT, 150 g ai/ha
[26] = Ø R128A, F420V 3, POST, 7 DAT, 300 g ai/ha
[27] = Ø non-transgenic Arabidopsis, POST, 7 DAT, 75 g ai/ha
[28] = Ø non-transgenic Arabidopsis, POST, 7 DAT, 150 g ai/ha
[29] = Ø non-transgenic Arabidopsis, POST, 7 DAT, 300 g ai/ha
[30] = transgenic Arabidopsis AMATU_PPO2_F420I
[31] = transgenic Arabidopsis AMATU_PPO2_F420L
[32] = transgenic Arabidopsis AMATU_PPO2_F420M
[33] = transgenic Arabidopsis AMATU_PPO2_R128A_F420I
[34] = transgenic Arabidopsis AMATU_PPO2_R128A_F420L
[35] = transgenic Arabidopsis AMATU_PPO2_R128A_F420M
[36] = transgenic Arabidopsis AMATU_PPO2_R128L
[37] = transgenic Arabidopsis AMATU_PPO2_dG210
[38] = transgenic Arabidopsis AMATU_PPO2_dG210_R128L
[39] = transgenic Arabidopsis AMATU_PPO2_wt

C#CCN1C(=O)C(F)(F)Oc2cc(F)c(-n3c(=O)n(C)c(=S)n(C)c3=O)cc21
Injury Rating 0-100% (0 = no injury, 100 = total control) ([1]; Line 2, F420V, SEQ_ID 2 & 4, 19 DAT, 150 g/Ha + 1% MSO): 90% and 85% and 45% | Plant growth injury, scale 0-100, 100 is 100% damage [1, 3]: 98% | Plant growth injury, scale 0-100, 100 is 100% damage [1, 4]: 98% | Plant growth injury, scale 0-100, 100 is 100% damage [1, 5]: 98% | Plant growth injury, scale 0-100, 100 is 100% damage [1, 6]: 17% | Plant growth injury, scale 0-100, 100 is 100% damage [1, 7]: 28% | Plant growth injury, scale 0-100, 100 is 100% damage [1, 8]: 36% | Plant growth injury, scale 0-100, 100 is 100% damage ([1]; Ø F420V 1 to 3, 75 g ai/ha): 11% | Plant growth injury, scale 0-100, 100 is 100% damage ([1]; Ø F420V 1 to 3, 150 g ai/ha): 17% | Plant growth injury, scale 0-100, 100 is 100% damage ([1]; Ø F420V 1 to 3, 300 g ai/ha): 26% | Plant growth injury, scale 0-100, 100 is 100% damage [1, 9]: 9% | Plant growth injury, scale 0-100, 100 is 100% damage [1, 10]: 11% | Plant growth injury, scale 0-100, 100 is 100% damage [1, 11]: 22% | Plant growth injury, scale 0-100, 100 is 100% damage [1, 12]: 8% | Plant growth injury, scale 0-100, 100 is 100% damage [1, 13]: 12% | Plant growth injury, scale 0-100, 100 is 100% damage [1, 14]: 22% | Plant growth injury, scale 0-100, 100 is 100% damage [1, 15]: 18% | Plant growth injury, scale 0-100, 100 is 100% damage [1, 16]: 23% | Plant growth injury, scale 0-100, 100 is 100% damage [1, 17]: 26% | Plant growth injury, scale 0-100, 100 is 100% damage [1, 18]: 18% | Plant growth injury, scale 0-100, 100 is 100% damage [1, 19]: 24% | Plant growth injury, scale 0-100, 100 is 100% damage [1, 20]: 32% | Plant growth injury, scale 0-100, 100 is 100% damage [1, 21]: 24% | Plant growth injury, scale 0-100, 100 is 100% damage [1, 22]: 20% | Plant growth injury, scale 0-100, 100 is 100% damage [1, 23]: 33% | Plant growth injury, scale 0-100, 100 is 100% damage [1, 24]: 11% | Plant growth injury, scale 0-100, 100 is 100% damage [1, 25]: 30% | Plant growth injury, scale 0-100, 100 is 100% damage [1, 26]: 36% | Plant growth injury, scale 0-100, 100 is 100% damage [1, 27]: 98% | Plant growth injury, scale 0-100, 100 is 100% damage [1, 28]: 98% | Plant growth injury, scale 0-100, 100 is 100% damage [1, 29]: 98% | Relative tolerance rate as compared to a non-transgenic Arabidopsis plant (non-transgenic = 1.0) [2, 30]: 367 | Relative tolerance rate as compared to a non-transgenic Arabidopsis plant (non-transgenic = 1.0) [2, 31]: 253 | Relative tolerance rate as compared to a non-transgenic Arabidopsis plant (non-transgenic = 1.0) [2, 32]: 102 | Relative tolerance rate as compared to a non-transgenic Arabidopsis plant (non-transgenic = 1.0) [2, 33]: 333 | Relative tolerance rate as compared to a non-transgenic Arabidopsis plant (non-transgenic = 1.0) [2, 34]: 333 | Relative tolerance rate as compared to a non-transgenic Arabidopsis plant (non-transgenic = 1.0) [2, 35]: 204 | Relative tolerance rate as compared to a non-transgenic Arabidopsis plant (non-transgenic = 1.0) [2, 36]: 23 | Relative tolerance rate as compared to a non-transgenic Arabidopsis plant (non-transgenic = 1.0) [2, 37]: 33 | Relative tolerance rate as compared to a non-transgenic Arabidopsis plant (non-transgenic = 1.0) [2, 38]: 153 | Relative tolerance rate as compared to a non-transgenic Arabidopsis plant (non-transgenic = 1.0) [2, 39]: 13

CC(C)N(C)S(=O)(=O)NC(=O)c1cc(-n2c(=O)cc(C(F)(F)F)n(C)c2=O)c(F)cc1Cl [Saflufenacil, saflufenacil]
Plant growth injury, scale 0-100, 100 is 100% damage [1, 3]: 98% | Plant growth injury, scale 0-100, 100 is 100% damage [1, 4]: 98% | Plant growth injury, scale 0-100, 100 is 100% damage [1, 5]: 98% | Plant growth injury, scale 0-100, 100 is 100% damage [1, 6]: 39% | Plant growth injury, scale 0-100, 100 is 100% damage [1, 7]: 60% | Plant growth injury, scale 0-100, 100 is 100% damage [1, 8]: 77% | Plant growth injury, scale 0-100, 100 is 100% damage ([1]; Ø F420V 1 to 3, 75 g ai/ha): 42% | Plant growth injury, scale 0-100, 100 is 100% damage ([1]; Ø F420V 1 to 3, 150 g ai/ha): 60% | Plant growth injury, scale 0-100, 100 is 100% damage ([1]; Ø F420V 1 to 3, 300 g ai/ha): 76% | Plant growth injury, scale 0-100, 100 is 100% damage [1, 9]: 36% | Plant growth injury, scale 0-100, 100 is 100% damage [1, 10]: 55% | Plant growth injury, scale 0-100, 100 is 100% damage [1, 11]: 72% | Plant growth injury, scale 0-100, 100 is 100% damage [1, 12]: 51% | Plant growth injury, scale 0-100, 100 is 100% damage [1, 13]: 66% | Plant growth injury, scale 0-100, 100 is 100% damage [1, 14]: 78% | Plant growth injury, scale 0-100, 100 is 100% damage [1, 15]: 16% | Plant growth injury, scale 0-100, 100 is 100% damage [1, 16]: 18% | Plant growth injury, scale 0-100, 100 is 100% damage [1, 17]: 22% | Plant growth injury, scale 0-100, 100 is 100% damage [1, 18]: 18% | Plant growth injury, scale 0-100, 100 is 100% damage [1, 19]: 20% | Plant growth injury, scale 0-100, 100 is 100% damage [1, 20]: 21% | Plant growth injury, scale 0-100, 100 is 100% damage [1, 21]: 22% | Plant growth injury, scale 0-100, 100 is 100% damage [1, 22]: 24% | Plant growth injury, scale 0-100, 100 is 100% damage [1, 23]: 22% | Plant growth injury, scale 0-100, 100 is 100% damage [1, 24]: 18% | Plant growth injury, scale 0-100, 100 is 100% damage [1, 25]: 18% | Plant growth injury, scale 0-100, 100 is 100% damage [1, 26]: 19% | Plant growth injury, scale 0-100, 100 is 100% damage [1, 27]: 98% | Plant growth injury, scale 0-100, 100 is 100% damage [1, 28]: 98% | Plant growth injury, scale 0-100, 100 is 100% damage [1, 29]: 98% | Relative tolerance rate as compared to a non-transgenic Arabidopsis plant (non-transgenic = 1.0) [2, 30]: 80 | Relative tolerance rate as compared to a non-transgenic Arabidopsis plant (non-transgenic = 1.0) [2, 31]: 192 | Relative tolerance rate as compared to a non-transgenic Arabidopsis plant (non-transgenic = 1.0) [2, 32]: 168 | Relative tolerance rate as compared to a non-transgenic Arabidopsis plant (non-transgenic = 1.0) [2, 33]: 1200 | Relative tolerance rate as compared to a non-transgenic Arabidopsis plant (non-transgenic = 1.0) [2, 34]: 1200 | Relative tolerance rate as compared to a non-transgenic Arabidopsis plant (non-transgenic = 1.0) [2, 35]: 1160 | Relative tolerance rate as compared to a non-transgenic Arabidopsis plant (non-transgenic = 1.0) [2, 36]: 160 | Relative tolerance rate as compared to a non-transgenic Arabidopsis plant (non-transgenic = 1.0) [2, 37]: 100 | Relative tolerance rate as compared to a non-transgenic Arabidopsis plant (non-transgenic = 1.0) [2, 38]: 1200 | Relative tolerance rate as compared to a non-transgenic Arabidopsis plant (non-transgenic = 1.0) [2, 39]: 10
